Source: paper PMC5372259, “Purification, characterization and amino acid content of cholesterol oxidase produced by Streptomyces aegyptia NEAE 102” (BMC Microbiology, 2017)

Test system: T1, cholesterol oxidase from Streptomyces aegyptia NEAE 102
T1 construct: gene choA; native extracellular enzyme purified from culture supernatant (ammonium sulfate, DEAE Sepharose CL-6B); 46 kDa by SDS-PAGE
Experiment: peroxidase-coupled H2O2 assay (4-aminoantipyrine/phenol, […] nm); Michaelis-Menten nonlinear regression
Type: biochemical
Details: pH 7.0 potassium phosphate, 37 °C, Triton X-100; O2 as co-substrate

Km: 152 µM
SMILES: CC(C)CCC[C@@H](C)[C@H]1CC[C@H]2[C@@H]3CC=C4C[C@@H](O)CC[C@]4(C)[C@H]3CC[C@]12C [cholesterol]
